Measured values from patent publication US20080114007A1 (priority 2006, published 2008).

These compounds were tested against CSF-1R (Homo sapiens, UniProt P07333) (assay: Peptide (non-phosphorylated) assay, fluorescence polarization competition immunoassay). Conditions: 0.7 nM CSF-1R, 308 μM SYEGNSYTFIDPTQ peptide, 1 mM ATP, 80 min; mean of at least three determinations; read-out: c-fms Peptide IC50.
Assay type: biochemical
Outline: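 Read-out is fluorescence polarization: after EDTA quench, anti-phosphotyrosine antibody plus PTK green tracer compete with the phosphorylated peptide for 30 min. The CSF-1R reaction itself ran 80 min at room temperature after ATP addition. DMSO (4%) wells served as controls, positive controls pre-treated with EDTA.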

Chain of CSF-1R (P07333 20-972): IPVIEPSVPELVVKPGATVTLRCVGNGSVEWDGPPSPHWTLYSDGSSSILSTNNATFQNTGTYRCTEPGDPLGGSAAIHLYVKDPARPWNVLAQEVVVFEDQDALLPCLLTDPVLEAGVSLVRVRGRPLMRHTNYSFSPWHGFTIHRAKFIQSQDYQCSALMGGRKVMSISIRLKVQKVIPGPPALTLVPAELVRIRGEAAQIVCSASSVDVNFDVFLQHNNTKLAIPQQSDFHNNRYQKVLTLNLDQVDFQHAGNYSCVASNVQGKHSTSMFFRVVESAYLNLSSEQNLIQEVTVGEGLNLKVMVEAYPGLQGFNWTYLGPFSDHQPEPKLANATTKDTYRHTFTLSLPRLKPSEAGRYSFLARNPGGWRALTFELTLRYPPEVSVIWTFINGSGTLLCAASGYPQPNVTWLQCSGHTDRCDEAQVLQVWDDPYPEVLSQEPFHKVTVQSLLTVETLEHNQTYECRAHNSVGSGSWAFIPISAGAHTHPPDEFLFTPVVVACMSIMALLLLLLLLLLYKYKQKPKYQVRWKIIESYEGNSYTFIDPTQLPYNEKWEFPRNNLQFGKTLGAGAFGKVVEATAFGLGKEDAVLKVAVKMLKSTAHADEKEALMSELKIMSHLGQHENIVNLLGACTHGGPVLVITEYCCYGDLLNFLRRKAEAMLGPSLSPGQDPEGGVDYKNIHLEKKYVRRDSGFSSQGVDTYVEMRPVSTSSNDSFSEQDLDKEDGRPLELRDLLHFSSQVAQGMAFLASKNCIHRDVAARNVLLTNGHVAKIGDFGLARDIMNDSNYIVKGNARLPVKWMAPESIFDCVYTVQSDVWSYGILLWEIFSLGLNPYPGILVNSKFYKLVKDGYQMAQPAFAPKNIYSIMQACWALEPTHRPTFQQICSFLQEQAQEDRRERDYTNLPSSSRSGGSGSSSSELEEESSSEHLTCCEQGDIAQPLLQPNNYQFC

Row | SMILES | IC50 [nM]
1 | CCc1ccc(-n2cc(C(=O)NOC)c(=O)c3cnc(Nc4ccc(C5CCCCN5)cc4)nc32)cc1 (stereo not shown) [Cpd 242, 8-(4-ethyl-phenyl)-5-oxo-2-(4-piperidin-2-yl-phenylamino)-5,8-dihydro-pyrido[2,3-d]pyrimidine-6-carboxylic acid methoxy-amide] | 0.59
2 | CCc1ccc(-n2cc(C(=O)NOC)c(=O)c3cnc(Nc4ccc(OC5CCN(C)CC5)cc4)nc32)cc1 [Cpd 309, 8-(4-ethyl-phenyl)-2-[4-(1-methyl-piperidin-4-yloxy)-phenylamino]-5-oxo-5,8-dihydro-pyrido[2,3-d]pyrimidine-6-carboxylic acid methoxy-amide] | 0.3
3 | CONC(=O)c1cn(-c2ccc3c(c2)CCC3)c2nc(Nc3cccc(N4CCNCC4)c3)ncc2c1=O [Cpd 2, 8-indan-5-yl-5-oxo-2-(3-piperazin-1-yl-phenylamino)-5,8-dihydro-pyrido[2,3-d]pyrimidine-6-carboxylic acid methoxy-amide] | 0.56
4 | CCc1ccc(-n2cc(C(=O)NOC)c(=O)c3cnc(Nc4ccc(NCCCOC)cc4)nc32)cc1 [Cpd 213, 8-(4-ethyl-phenyl)-2-[4-(3-methoxy-propylamino)-phenylamino]-5-oxo-5,8-dihydro-pyrido[2,3-d]pyrimidine-6-carboxylic acid methoxy-amide] | 1.1
5 | CONC(=O)c1cn(-c2ccc3c(c2)CCC3)c2nc(Nc3ccc(CCN(C)C4CCOCC4)cc3)ncc2c1=O [Cpd 74, 8-indan-5-yl-2-(4-{2-[methyl-(tetrahydro-pyran-4-yl)-amino]-ethyl}-phenylamino)-5-oxo-5,8-dihydro-pyrido[2,3-d]pyrimidine-6-carboxylic acid methoxy-amide] | 0.62
6 | CCc1ccc(-n2cc(C(=O)NOC)c(=O)c3cnc(Nc4ccc(CC(=O)NN5CCCCC5)cc4)nc32)cc1 [Cpd 104, 8-(4-ethyl-phenyl)-5-oxo-2-[4-(piperidin-1-ylcarbamoylmethyl)-phenylamino]-5,8-dihydro-pyrido[2,3-d]pyrimidine-6-carboxylic acid methoxy-amide] | 3
7 | CONC(=O)c1cn(-c2ccc3c(c2)CCC3)c2nc(Nc3ccc(-n4cccn4)cc3)ncc2c1=O [Cpd 284, 8-indan-5-yl-5-oxo-2-(4-pyrazol-1-yl-phenylamino)-5,8-dihydro-pyrido[2,3-d]pyrimidine-6-carboxylic acid methoxy-amide] | 2.2
8 | CONC(=O)c1cn(-c2ccc3c(c2)C=CC3)c2nc(Nc3ccc(C4CCN(C)CC4)cc3)ncc2c1=O [Cpd 259, 8-(1H-inden-5-yl)-2-[4-(1-methyl-piperidin-4-yl)-phenylamino]-5-oxo-5,8-dihydro-pyrido[2,3-d]pyrimidine-6-carboxylic acid methoxy-amide] | 0.7
9 | CONC(=O)c1cn(-c2ccc3c(c2)CCC3)c2nc(Nc3ccc(CCN4CCN(C)CC4)cc3)ncc2c1=O [Cpd 61, 8-indan-5-yl-2-{4-[2-(4-methyl-piperazin-1-yl)-ethyl]-phenylamino}-5-oxo-5,8-dihydro-pyrido[2,3-d]pyrimidine-6-carboxylic acid methoxy-amide] | 0.68
10 | CCONC(=O)c1cn(C2CCCC2)c2nc(Nc3ccc(CCN4CCCC4)cc3)ncc2c1=O [Cpd 40, 8-cyclopentyl-5-oxo-2-[4-(2-pyrrolidin-1-yl-ethyl)-phenylamino]-5,8-dihydro-pyrido[2,3-d]pyrimidine-6-carboxylic acid ethoxy-amide] | 6.8
11 | CONC(=O)c1cn(-c2ccc3c(c2)CCC3)c2nc(Nc3ccc(CC(=O)N4CCN(C)CC4)cc3)ncc2c1=O [Cpd 152, 8-indan-5-yl-2-{4-[2-(4-methylpiperazin-1-yl)-2-oxo-ethyl]-phenylamino}-5-oxo-5,8-dihydro-pyrido[2,3-d]pyrimidine-6-carboxylic acid methoxy-amide] | 1.5
12 | CCc1ccc(-n2cc(C(=O)NOC(C)C)c(=O)c3cnc(Nc4ccc(C5CCN(S(C)(=O)=O)CC5)cc4)nc32)cc1 [Cpd 60, 8-(4-ethyl-phenyl)-2-[4-(1-methanesulfonyl-piperidin-4-yl)-phenylamino]-5-oxo-5,8-dihydro-pyrido[2,3-d]pyrimidine-6-carboxylic acid isopropoxy-amide] | 7
13 | CONC(=O)c1cn(-c2ccc3c(c2)CCC3)c2nc(Nc3ccc(Cn4cncn4)cc3)ncc2c1=O [Cpd 283, 8-indan-5-yl-5-oxo-2-(4-[1,2,4]triazol-1-ylmethyl-phenylamino)-5,8-dihydro-pyrido[2,3-d]pyrimidine-6-carboxylic acid methoxy-amide] | 0.9
14 | CONC(=O)c1cn(-c2ccc3c(c2)CCC3)c2nc(Nc3ccc(CCc4ncn[nH]4)cc3)ncc2c1=O [Cpd 190, 8-indan-5-yl-5-oxo-2-{4-[2-(1H-[1,2,4]triazol-3-yl)-ethyl]-phenylamino}-5,8-dihydro-pyrido[2,3-d]pyrimidine-6-carboxylic acid methoxy-amide] | 4.2
15 | CONC(=O)c1cn(-c2ccc3c(c2)CCC3)c2nc(Nc3ccc(CCS(=O)(=O)NC(C)C)cc3)ncc2c1=O [Cpd 77, 8-indan-5-yl-2-[4-(2-isopropylsulfamoyl-ethyl)-phenylamino]-5-oxo-5,8-dihydro-pyrido[2,3-d]pyrimidine-6-carboxylic acid methoxy-amide] | 0.95
16 | CCONC(=O)c1cn(-c2ccc3c(c2)CCC3)c2nc(Nc3ccc(CCN4CCCC4=O)cc3)ncc2c1=O [Cpd 135, 8-indan-5-yl-5-oxo-2-{4-[2-(2-oxo-pyrrolidin-1-yl)-ethyl]-phenylamino}-5,8-dihydro-pyrido[2,3-d]pyrimidine-6-carboxylic acid ethoxy-amide] | 66
17 | CCn1cnc2cc(Nc3ncc4c(=O)c(C(=O)NOC)cn(-c5ccc6c(c5)CCC6)c4n3)ccc21 [Cpd 301, 2-(1-ethyl-1H-benzoimidazol-5-ylamino)-8-indan-5-yl-5-oxo-5,8-dihydro-pyrido[2,3-d]pyrimidine-6-carboxylic acid methoxy-amide] | 0.9
18 | CCONC(=O)c1cn(C2CCCCC2)c2nc(Nc3ccc(C[C@H]4COC(=O)N4)cc3)ncc2c1=O [Cpd 23, (S)-8-cyclohexyl-5-oxo-2-[4-(2-oxo-oxazolidin-4-ylmethyl)-phenylamino]-5,8-dihydro-pyrido[2,3-d]pyrimidine-6-carboxylic acid ethoxy-amide] | 3
19 | CCc1ccc(-n2cc(C(=O)NOC)c(=O)c3cnc(Nc4ccc(OC5CN6CCC5CC6)cc4)nc32)cc1 (stereo not shown) [Cpd 268, 2-[4-(1-aza-bicyclo[2.2.2]oct-3-yloxy)-phenylamino]-8-(4-ethyl-phenyl)-5-oxo-5,8-dihydro-pyrido[2,3-d]pyrimidine-6-carboxylic acid methoxy-amide] | 0.4
20 | CCONC(=O)c1cn(-c2ccc(CC)cc2)c2nc(Nc3ccc(C4CCN(CC)CC4)cc3)ncc2c1=O [Cpd 181, 8-(4-ethyl-phenyl)-2-[4-(1-ethyl-piperidin-4-yl)-phenylamino]-5-oxo-5,8-dihydro-pyrido[2,3-d]pyrimidine-6-carboxylic acid ethoxy-amide] | 0.2
21 | CCc1ccc(-n2cc(C(=O)NOC)c(=O)c3cnc(Nc4cccc(OCCOC)c4)nc32)cc1 [Cpd 215, 8-(4-ethyl-phenyl)-2-[3-(2-methoxy-ethoxy)-phenylamino]-5-oxo-5,8-dihydro-pyrido[2,3-d]pyrimidine-6-carboxylic acid methoxy-amide] | 1
22 | CCc1ccc(-n2cc(C(=O)NOC)c(=O)c3cnc(Nc4cccc(OC5CCN(CC)CC5)c4)nc32)cc1 [Cpd 322, 8-(4-ethyl-phenyl)-2-[3-(1-ethyl-piperidin-4-yloxy)-phenylamino]-5-oxo-5,8-dihydro-pyrido[2,3-d]pyrimidine-6-carboxylic acid methoxy-amide] | 0.8
23 | CONC(=O)c1cn(-c2ccc3c(c2)CCC3)c2nc(Nc3ccc(CCC(=O)NS(C)(=O)=O)cc3)ncc2c1=O [Cpd 153, 8-indan-5-yl-2-[4-(3-methanesulfonylamino-3-oxo-propyl)-phenylamino]-5-oxo-5,8-dihydro-pyrido[2,3-d]pyrimidine-6-carboxylic acid methoxy-amide] | 3.2
24 | CCc1ccc(-n2cc(C(=O)NOC)c(=O)c3cnc(Nc4ccc5c(c4)CCN5S(C)(=O)=O)nc32)cc1 [Cpd 280, 8-(4-ethyl-phenyl)-2-(1-methanesulfonyl-2,3-dihydro-1H-indol-5-ylamino)-5-oxo-5,8-dihydro-pyrido[2,3-d]pyrimidine-6-carboxylic acid methoxy-amide] | 0.4
25 | CCONC(=O)c1cn(-c2ccc(CC)cc2)c2nc(Nc3ccc(C4CCN(CCCO)CC4)cc3)ncc2c1=O [Cpd 186, 8-(4-ethyl-phenyl)-2-{4-[1-(3-hydroxy-propyl)-piperidin-4-yl]-phenylamino}-5-oxo-5,8-dihydro-pyrido[2,3-d]pyrimidine-6-carboxylic acid ethoxy-amide] | 0.6
26 | CONC(=O)c1cn(-c2ccc3c(c2)CCC3)c2nc(Nc3ccc(C4CCN(CCS(C)(=O)=O)CC4)cc3)ncc2c1=O [Cpd 78, 8-indan-5-yl-2-{4-[1-(2-methanesulfonyl-ethyl)-piperidin-4-yl]-phenylamino}-5-oxo-5,8-dihydro-pyrido[2,3-d]pyrimidine-6-carboxylic acid methoxy-amide] | 0.72
27 | CCOC(=O)CN1CCC(c2ccc(Nc3ncc4c(=O)c(C(=O)NOC)cn(-c5ccc6c(c5)CCC6)c4n3)cc2)CC1 [Cpd 86, {4-[4-(8-indan-5-yl-6-methoxycarbamoyl-5-oxo-5,8-dihydro-pyrido[2,3-d]pyrimidin-2-ylamino)-phenyl]-piperidin-1-yl}-acetic acid ethyl ester] | 1.8

Same assay, conditions: c-fms Peptide IC50, 0.7 nM CSF-1R, 308 μM SYEGNSYTFIDPTQ peptide, 1 mM ATP, 80 min; mean of at least three determinations

Row | SMILES | IC50 [nM]
28 | CONC(=O)c1cn(-c2ccc3c(c2)CCC3)c2nc(Nc3ccc(CCN4CCC(F)(F)CC4)cc3)ncc2c1=O [Cpd 234, 2-{4-[2-(4,4-difluoro-piperidin-1-yl)-ethyl]-phenylamino}-8-indan-5-yl-5-oxo-5,8-dihydro-pyrido[2,3-d]pyrimidine-6-carboxylic acid methoxy-amide] | 1.7
